Laboratory results taken from PubChem BioAssay (NCI).
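In this assay, cells in 96-well plates receive the compound at five concentrations for 48 hours. Endpoints are linearly interpolated between the surrounding concentrations. The concentration for full growth arrest is given as TGI.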

Columns and labels:
Assay in all cases: NCI tumour cell line growth inhibition, 48 h
HS 578T breast = test system: HS 578T breast
SF-268 CNS = test system: SF-268 CNS
786-0 renal = test system: 786-0 renal
MDA-MB-231 breast = test system: MDA-MB-231 breast
CAKI-1 renal = test system: CAKI-1 renal
KM12 colon = test system: KM12 colon
SNB-75 CNS = test system: SNB-75 CNS
HT29 colon = test system: HT29 colon
NCI-H23 lung = test system: NCI-H23 lung
HCC-2998 colon = test system: HCC-2998 colon
BT-549 breast = test system: BT-549 breast

Row | Compound | TGI (HS 578T breast) [µM] | TGI (SF-268 CNS) [µM] | TGI (786-0 renal) [µM] | TGI (MDA-MB-231 breast) [µM] | TGI (CAKI-1 renal) [µM] | TGI (KM12 colon) [µM] | TGI (SNB-75 CNS) [µM] | TGI (HT29 colon) [µM] | TGI (NCI-H23 lung) [µM] | TGI (HCC-2998 colon) [µM] | TGI (BT-549 breast) [µM]
1 | COC1=CC(=O)C(O)=C(C[C@@]2(C)[C@@H]3CCC[C@H](COC(=O)CCCCCNC(=O)OC(C)(C)C)[C@@]3(C)CC[C@@H]2C)C1=O | > 10 | > 10 | > 10 | > 10 | > 10 | > 10 | > 10 | > 10 |  |  | 
2 | C/C(Cl)=N\OC(=O)Nc1ccccc1C(F)(F)F | > 100 | > 100 | 38.6 | 46.9 | > 100 | > 100 | > 100 | 34.7 | > 100 | > 100 | 
3 | O=[N+]([O-])CC(SCc1ccccc1)c1ccc2c(c1)OCO2 (stereo not given) | 18.2 | > 61.2 | 3.42 | 25.6 | 28.6 | 19.1 | 30.6 | 7.64 | 17.5 | 10.5 | 
4 | COc1ccc(C(=O)N2CCN(c3ccc4c(c3)OCC(=O)N4)CC2)cc1 | > 100 | > 100 | > 100 | > 100 | > 100 | > 100 | > 100 | > 100 | > 100 | > 100 | > 100
5 | CCN1/C(=C/c2ccc3ccccc3[n+]2CC)C=Cc2ccccc21 | 12.5 | 16.5 | 13.9 | 8.12 | 56.8 | 1.4 | 2.27 | 11 | 17.1 | 13.4 | 24
6 | c1ccc2nc3[nH]c4ccccc4c3cc2c1 | 5.84 | 7.3 | 1.16 | 2.64 | 3.69 | 1.81 | 6.44 | 1.75 | 1.81 | 2.85 | 2.87
7 | C=CCN1C(=O)/C(=C/c2ccc(C)cc2)N=C1SC/C=C/C | > 100 | > 100 | > 100 | > 100 | > 100 | > 100 | 70.1 | > 100 | > 100 | > 100 | > 100
8 | COC(=O)[C@H]1[C@H](C(=O)OC)[C@@H](C)c2c(ccc3c2[nH]c2ccccc23)[C@@H]1C | > 100 | > 100 | 61.5 | > 100 | > 100 | > 100 | 68.7 | > 100 | > 100 |  | > 100
9 | Oc1ccc(-c2nc3cc(C(F)(F)F)ccc3n2CC2CCCN3CCCCC23)cc1 (stereo not given) | 31.5 | 28.1 | 30.7 | 27.6 | 38.8 | 29.3 | 32.4 | 34.7 | 30.4 | 21.5 | 
10 | FC(F)(F)c1ccc2c(c1)nc(Cc1ccccc1)n2C[C@@H]1CCCN2CCCCC12 (stereo not given in full) | 57 | 31 | 28.6 | 27.8 | 31.1 | 30.3 | 29.9 | 26.8 | 30.8 | 10.6 | 28.7
11 | Cc1cc(C)c2c(n1)S(=O)(=O)N(CCCN1CCN(c3cccc(C(F)(F)F)c3)CC1)/C(=C(\O)c1ccccc1)C2=O | > 100 | > 100 | 16.5 | 71.8 | 11.9 | 27 | 19.2 | 43.9 | 21.7 |  | 57.3
12 | OC(c1cccs1)c1cc2ccccc2s1 (stereo not given) | > 10 | > 10 | > 10 | > 10 | > 10 | > 10 | > 10 | > 10 | > 10 | > 10 | 
13 | COC(=O)NCCc1[nH]nc2c1C(=O)C=C(OC)C2=O | 88.1 | 36 | 36.2 | 30.4 | 45.5 | 41.3 | 40.2 | > 100 | 44.4 | > 100 | 
14 | O=C1CN(c2ccc(Cl)cc2)C(=O)CN1CCN1CC(=O)N(c2ccc(Cl)cc2)CC1=O | > 100 | > 100 | > 100 |  | > 100 | > 100 | > 100 | > 100 | > 100 | > 100 | > 100
15 | NC1CC2C3CCC2C1C3=O (stereo not given) | > 100 | > 100 | > 100 | > 100 | > 100 | > 100 | > 100 | > 100 | > 100 | > 100 | 
16 | OCCCSc1ccccc1SCCCO |  | > 100 | > 100 | > 100 |  | > 100 | > 100 | > 100 | > 100 | > 100 | > 100
17 | N#CC1C(=O)Nc2sc(C(=O)c3ccc(Br)cc3)c(N)c2C12CCCCC2 (stereo not given) |  | > 100 | > 100 | 67.7 | > 100 | 44.1 | > 100 | > 100 | > 100 | 57.7 | > 100
18 | CC1=C(C(=O)OCCO[N+](=O)[O-])C(c2ccccc2C(F)(F)F)C(C(=O)OC(C)C)=C(C)N1 (stereo not given) |  | 47.9 | 36.6 | 23.5 | 52.3 | 21.8 |  | 36.3 | 85.4 | > 100 | 26.9
19 | C=C1CC/C=C(/C(=O)O)CC[C@H]2[C@@H]1CC2(C)C | > 100 | > 100 | > 100 | > 100 | > 100 | > 100 |  | > 100 | > 100 | > 100 | > 100
20 | O=c1nc2n(cc1/C=C\Br)C1CC(O)C(CO2)O1 (stereo not given) |  | > 100 | > 100 | > 100 | > 100 | > 100 | > 100 | > 100 | > 100 | > 100 | > 100
21 | CCOC(=O)c1c(C)n(Cc2ccccc2)c2c1cc(O)c1[nH]c3c(c12)CCCC3 | 7.97 | 5.16 | 30.2 | 19 | 24.5 | 13.2 |  | 26.4 | 29.9 |  | 24.6
